These are literature values, as cited in paper PMC7837508, “Interactions of the Diazabicyclooctane Serine β-Lactamase Inhibitor ETX1317 with Target Enzymes” (ACS Infectious Diseases, 2020).

SMILES strings stand for the structures. Read-outs that look alike come from different tables or passages of the source.

In data set [1] the target is OXA-10. The settings on record: OXA-10, ambient temperature, pH 7.0, nitrocefin; ref 6 and 7; cited from earlier work.
Data set [2] addresses T1, SHV-5 (Klebsiella pneumoniae, UniProt P0A3M1).
T1 construct: made in house
The settings on record: SHV-5, ambient temperature, pH 7.0, nitrocefin; ref 6 and 7; cited from earlier work.

Data set [3] addresses T2, OXA-48 (Klebsiella pneumoniae, UniProt Q6XEC0).
T2 construct: made in house
The following applies: OXA-48, ambient temperature, pH 7.0, nitrocefin; ref 6 and 7; cited from earlier work.

The target in data set [4] is T3, CTX-M-15 (Escherichia coli, UniProt Q9EXV5).
T3 construct: made in house
T3 sequence (Q9EXV5 29-291, species assumed): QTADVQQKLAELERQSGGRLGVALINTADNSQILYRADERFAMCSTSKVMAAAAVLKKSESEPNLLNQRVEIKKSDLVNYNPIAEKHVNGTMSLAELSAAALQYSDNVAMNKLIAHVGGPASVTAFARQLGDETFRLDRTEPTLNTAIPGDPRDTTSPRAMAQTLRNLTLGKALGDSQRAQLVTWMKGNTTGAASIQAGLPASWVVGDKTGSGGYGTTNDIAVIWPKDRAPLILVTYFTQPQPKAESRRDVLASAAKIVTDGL
The settings on record: CTX-M-15, ambient temperature, pH 7.0, nitrocefin; ref 6 and 7; cited from earlier work.

Data set [5] concerns the target T4, KPC-2 (Klebsiella pneumoniae, UniProt Q9F663).
T4 construct: made in house
The settings on record: KPC-2, ambient temperature, pH 7.0, nitrocefin; ref 6 and 7; cited from earlier work.

Data set [6] concerns the target T5, TEM-1 (Escherichia coli, UniProt P62593).
T5 construct: made in house
Details: method as in PMID 28665414, PMID 32658473. The settings on record: TEM-1, ambient temperature, pH 7.0, nitrocefin; ref 6 and 7; cited from earlier work.

For data set [7], the target named is OXA-24. The following applies: OXA-24, ambient temperature, pH 7.0, nitrocefin; ref 6 and 7; cited from earlier work.
Data set [8] concerns the target T6, E. cloacae P99 (Enterobacter cloacae, UniProt P05364).
T6 construct: made in house
The settings on record: cited from earlier work.

For data set [9], the target named is T7, P. aeruginosa AmpC (Pseudomonas aeruginosa, UniProt P24735).
T7 construct: made in house
T7 sequence (P24735 27-397): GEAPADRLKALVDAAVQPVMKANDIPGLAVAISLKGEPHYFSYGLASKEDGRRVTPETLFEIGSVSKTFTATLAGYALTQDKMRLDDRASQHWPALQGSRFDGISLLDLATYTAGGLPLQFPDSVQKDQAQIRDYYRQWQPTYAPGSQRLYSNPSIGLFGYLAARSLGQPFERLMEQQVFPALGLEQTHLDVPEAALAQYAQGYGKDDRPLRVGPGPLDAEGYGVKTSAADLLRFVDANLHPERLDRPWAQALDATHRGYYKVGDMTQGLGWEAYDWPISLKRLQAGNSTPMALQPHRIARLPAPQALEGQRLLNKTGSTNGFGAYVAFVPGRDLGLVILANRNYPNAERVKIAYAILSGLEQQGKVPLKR
The settings on record: ambient temperature, pH 7.0, nitrocefin, ref 6 and 7; cited from earlier work.

Data set [10] deals with OXA-23. The following applies: OXA-23, ambient temperature, pH 7.0, nitrocefin; ref 6 and 7; cited from earlier work.
Data set [11] deals with T1, SHV-5. Details: method as in PMID 28835096. The following applies: cited from earlier work.
In data set [12] the target is T3, CTX-M-15. The following applies: cited from earlier work.
Data set [13] has as its target T6, E. cloacae P99. The settings on record: cited from earlier work. The source holds these as a separate data set.
In data set [14] the target is T2, OXA-48. The settings on record: OXA-48, 37 °C, discontinuous jump dilution method covering 6 h; cited from earlier work.
The target of data set [15] is T7, P. aeruginosa AmpC. The following applies: cited from earlier work.
The target in data set [16] is T4, KPC-2. The following applies: cited from earlier work.
Data set [17] addresses T5, TEM-1. The following applies: cited from earlier work.

T2 sequence (Q6XEC0 23-265, looked up, species assumed): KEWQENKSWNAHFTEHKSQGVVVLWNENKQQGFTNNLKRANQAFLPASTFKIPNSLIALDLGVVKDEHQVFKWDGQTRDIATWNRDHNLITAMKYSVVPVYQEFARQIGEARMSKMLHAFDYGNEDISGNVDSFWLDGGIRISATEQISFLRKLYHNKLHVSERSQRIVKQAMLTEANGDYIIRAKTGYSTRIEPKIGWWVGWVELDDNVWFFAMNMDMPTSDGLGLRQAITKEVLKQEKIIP
T5 sequence (P62593 24-286 limits assumed): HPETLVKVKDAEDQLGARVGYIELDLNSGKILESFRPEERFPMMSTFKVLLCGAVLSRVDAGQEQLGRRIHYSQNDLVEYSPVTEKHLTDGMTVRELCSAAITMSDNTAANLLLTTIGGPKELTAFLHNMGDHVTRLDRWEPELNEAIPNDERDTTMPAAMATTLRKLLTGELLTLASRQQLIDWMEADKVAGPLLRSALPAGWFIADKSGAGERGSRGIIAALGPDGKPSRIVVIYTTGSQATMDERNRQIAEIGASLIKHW
T6 sequence (P05364 21-381): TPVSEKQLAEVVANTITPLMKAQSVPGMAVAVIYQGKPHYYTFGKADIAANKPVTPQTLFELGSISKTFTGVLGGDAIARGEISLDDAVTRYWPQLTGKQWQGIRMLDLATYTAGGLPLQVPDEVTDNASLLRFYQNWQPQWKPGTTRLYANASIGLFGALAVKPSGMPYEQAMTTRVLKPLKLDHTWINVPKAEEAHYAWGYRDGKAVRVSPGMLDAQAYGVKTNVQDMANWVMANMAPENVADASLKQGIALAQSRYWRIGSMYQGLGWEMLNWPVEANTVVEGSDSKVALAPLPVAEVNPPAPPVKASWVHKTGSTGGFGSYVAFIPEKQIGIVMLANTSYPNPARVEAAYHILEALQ
T1 sequence (P0A3M1 22-286, species assumed): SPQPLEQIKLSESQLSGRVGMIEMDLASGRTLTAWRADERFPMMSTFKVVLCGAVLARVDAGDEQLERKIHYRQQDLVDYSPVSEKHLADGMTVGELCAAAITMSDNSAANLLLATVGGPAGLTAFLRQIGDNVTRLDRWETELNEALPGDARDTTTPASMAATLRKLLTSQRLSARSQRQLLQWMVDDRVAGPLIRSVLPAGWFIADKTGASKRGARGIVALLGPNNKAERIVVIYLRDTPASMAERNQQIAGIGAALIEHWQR
T4 sequence (Q9F663 25-293, looked up, species assumed): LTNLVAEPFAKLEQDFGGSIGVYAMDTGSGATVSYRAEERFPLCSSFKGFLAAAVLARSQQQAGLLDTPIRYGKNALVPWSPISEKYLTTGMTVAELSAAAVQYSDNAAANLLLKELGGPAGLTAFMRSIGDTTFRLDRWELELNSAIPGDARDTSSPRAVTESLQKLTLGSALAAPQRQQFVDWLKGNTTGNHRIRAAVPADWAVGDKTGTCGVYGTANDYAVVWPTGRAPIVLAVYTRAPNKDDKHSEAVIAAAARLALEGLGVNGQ

In the case of `NC(=O)[C@@H]1CC[C@@H]2CN1C(=O)N2OS(=O)(=O)O` [avibactam], the kinact/Ki in data set [1] was 70 M^–1 s^–1; in [2] it was 1 × 10^5 M^–1 s^–1; in [3], 5 × 10^3 M^–1 s^–1; in data set [4], 8 × 10^5 M^–1 s^–1; in data set [5] it was 6 × 10^3 M^–1 s^–1; in data set [6] it was 4 × 10^5 M^–1 s^–1. Also, the kinact/Ki is 80 M^–1 s^–1 in data set [7], 8 × 10^3 M^–1 s^–1 in [8] (pH 7) and 3 × 10^3 M^–1 s^–1 in data set [9].

Regarding `CC1=C[C@@H]2CN(C(=O)N2OS(=O)(=O)O)[C@@H]1C(N)=O` [durlobactam], the kinact/Ki is 5.1 (±0.2) × 10^3 M^–1 s^–1 in [10]; 9 (±2) × 10^3 M^–1 s^–1 in data set [1]; 6.4 (±0.5) × 10^6 M^–1 s^–1 in data set [2]; 8 (±2) × 10^5 M^–1 s^–1 in [3]; 7 (±2) × 10^6 M^–1 s^–1 in [4]; 9.3 (±0.6) × 10^5 M^–1 s^–1 in data set [5]. The kinact/Ki in data set [6] is on record as 1.4 (±0.6) × 10^7 M^–1 s^–1; in data set [7] it was 9 (±2) × 10^3 M^–1 s^–1; in data set [8] (E. cloacae P99, ambient temperature, pH 7.0, nitrocefin, ref 6 and 7), 2.3 (±0.4) × 10^6 M^–1 s^–1; in data set [9], 9 (±5) × 10^5 M^–1 s^–1. For the same compound, the koff was 5.5 (±0.3) × 10^–4 s^–1 in [11]; 2.2 (±0.5) × 10^–4 s^–1 in [12]; 3.4 (±0.5) × 10^–4 s^–1 in [13]; 2.5 (±0.3) × 10^–5 s^–1 in data set [14]; 4 (±1) × 10^–3 s^–1 in [15]; 1.0 (±0.1) × 10^–3 s^–1 in data set [16]. In addition, the koff in [17] is 1.4 (±0.2) × 10^–3 s^–1.
